Test results: patent publication US10160747B2, “Compounds and methods for kinase modulation, and indications therefor” (Plexxikon Inc., priority 2016, dated 2018)

What was measured:
[1] = tested on: MOLM-14 D835Y (endogenous FLT3 ITD and transfected FLT3 D835Y); experiment: MOLM-14 D835Y cell proliferation assay (CellTiter-Glo); type: cell-based; conditions: Homo sapiens, MOLM-14, 72 h; 3 d growth, GMean
In short: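 MOLM-14 derivatives carrying D835Y or F691L, selected under escalating AC220, were seeded at 1×10^4 cells/well and exposed to an 8-point 1:3 compound series (1 to 0.00046 μM, 0.2% DMSO final) for three days at 37° C., 5% CO2. CellTiter-Glo luminescence (ATP content) versus concentration gave IC50.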

FLT3-ITD = biological target: T1, FLT3-ITD (Homo sapiens, UniProt P36888); experiment: FLT3-ITD recombinant enzyme kinase assay (AlphaScreen); type: biochemical; conditions: 8 pt; read-out: FLT3_ITD 8 pt: IC50
T1 sequence (P36888 1-993): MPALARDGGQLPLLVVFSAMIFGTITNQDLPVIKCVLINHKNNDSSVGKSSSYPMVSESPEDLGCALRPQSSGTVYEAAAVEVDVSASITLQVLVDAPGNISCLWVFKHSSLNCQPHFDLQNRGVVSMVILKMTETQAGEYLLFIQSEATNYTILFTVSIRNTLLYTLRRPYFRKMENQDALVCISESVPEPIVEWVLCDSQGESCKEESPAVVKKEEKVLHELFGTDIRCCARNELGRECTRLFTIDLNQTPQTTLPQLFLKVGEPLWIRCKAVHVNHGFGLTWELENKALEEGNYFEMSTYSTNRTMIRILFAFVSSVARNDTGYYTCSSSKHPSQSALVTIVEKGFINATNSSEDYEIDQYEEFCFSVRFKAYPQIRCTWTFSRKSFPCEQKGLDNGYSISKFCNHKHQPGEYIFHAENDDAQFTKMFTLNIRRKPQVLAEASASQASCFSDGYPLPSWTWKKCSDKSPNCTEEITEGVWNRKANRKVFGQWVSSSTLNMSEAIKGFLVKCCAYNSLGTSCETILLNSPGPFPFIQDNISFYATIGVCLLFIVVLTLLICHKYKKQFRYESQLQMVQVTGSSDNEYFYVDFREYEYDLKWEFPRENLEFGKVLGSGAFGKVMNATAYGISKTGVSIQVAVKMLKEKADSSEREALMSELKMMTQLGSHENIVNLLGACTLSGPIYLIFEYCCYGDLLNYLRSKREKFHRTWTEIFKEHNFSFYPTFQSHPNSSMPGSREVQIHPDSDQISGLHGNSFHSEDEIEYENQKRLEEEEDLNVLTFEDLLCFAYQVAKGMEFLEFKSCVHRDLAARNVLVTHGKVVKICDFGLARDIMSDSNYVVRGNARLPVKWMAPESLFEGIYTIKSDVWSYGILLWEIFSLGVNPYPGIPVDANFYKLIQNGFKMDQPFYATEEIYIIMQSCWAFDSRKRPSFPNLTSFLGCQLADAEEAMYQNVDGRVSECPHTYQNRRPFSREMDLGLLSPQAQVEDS
Procedure: In order to determine the effect of compounds on FLT3 catalytic activity, kinase assays using recombinant enzymes and AlphaScreen® technology have been established. The catalytic activity of c-kit activity was also measured to determine selectivity of the compounds. When the kinases are catalytically active, they phosphorylate a biotinylated peptide substrate on tyrosine residues. Using AlphaScreen® technology, the ability of the compounds to affect the catalytic activity of the kinases can be measured quantitatively. The peptide substrate is immobilized by the AlphaScreen® Streptavidin Donor beads and, upon phosphorylation by a tyrosine kinase, can bind to AlphaScreen® Anti-Phosphotyrosine (PY20) Acceptor beads. Upon excitation of these beads with laser light at 680 nm, singlet oxygen is produced. This singlet oxygen is rapidly quenched, unless the AlphaScreen® Anti-Phosphotyrosine (PY20) Acceptor beads are in close proximity, in which case a proximity signal can be measured at 580 nm. In the presence of catalytic activity, there is a very strong proximity signal. Selective kinase inhibitors affect a decrease in this proximity signal through a decrease in tyrosine phosphorylation of the peptide substrate.
The assay was performed as summarized below.
Poly (Glu4-Tyr) Peptide, biotin conjugate [Biotin-GG(EEEEY)10EE] (SEQ ID NO: 4)
Final concentration=30 nM
Adenosine Triphosphate (ATP)
Final concentration for IC50 determination=10 μM (FLT3-D835Y or FLT3-ITD) or 100 μM (c-KIT)
AlphaScreen® Phosphotyrosine (PY20) Assay Kit
Final concentration=10 μg/mL
Dilute compounds in DMSO to 20× final concentration.
Add 1 μL of compound to each well of 384 well reaction plate (Perkin Elmer #6005359).
Mix enzyme and Poly (Glu4-Tyr) Peptide substrate at 1.33× final concentration in assay buffer.
Mix ATP at 5× final concentration in assay buffer.
Add 15 μL enzyme/substrate mixture to the reaction plate.
Add 4 μL of ATP to the reaction plate.
Mix Streptavidin Donor beads at 6× final concentration in Stop/Detection buffer.
Add 5 μL Streptavidin Donor beads to the reaction plate. Centrifuge 1 minute, shake to mix, and incubate at room temperature for 20 minutes.
Mix Anti-Phosphotyrosine (PY20) Acceptor beads at 6× final concentration in Stop/Detection buffer.
Add 5 μL Anti-Phosphotyrosine (PY20) beads to the reaction plate.
Centrifuge 1 minute, shake to mix, and incubate at room temperature for 60 minutes.
Read plate on Wallac EnVision™ 2103 Multilabel Reader.

| IC50 [1] | IC50 (FLT3-ITD) | SMILES |
| --- | --- | --- |
| 0.0001 to 10 µM | 0.0001 to 10 µM | Cn1cc(Nc2ncc(-c3ccc(CC(=O)Nc4ccc(C(F)(F)F)nc4)c(F)c3)cn2)cn1 [Compound P-0110, 2-[2-fluoro-4-[2-[(1-methylpyrazol-4-yl)amino]pyrimidin-5-yl]phenyl]-N-[6-(trifluoromethyl)-3-pyridyl]acetamide] |
| 0.0001 to 10 µM | 0.0001 to 10 µM | Cn1cc(Nc2ncc(-c3ccc(CC(=O)Nc4ccnc(C(F)(F)F)n4)cc3)cn2)cn1 [Compound P-0137, 2-[4-[2-[(1-methylpyrazol-4-yl)amino]pyrimidin-5-yl]phenyl]-N-[2-(trifluoromethyl)pyrimidin-4-yl]acetamide] |
| 0.0001 to 10 µM | 0.0001 to 10 µM | O=C(Cc1ccc(-c2cnc3[nH]c(-c4ccccc4)cc3c2)cc1F)Nc1ccnc(C(F)(F)F)c1 [Compound P-0004, 2-[2-fluoro-4-(2-phenyl-1H-pyrrolo[2,3-b]pyridin-5-yl)phenyl]-N-[2-(trifluoromethyl)-4-pyridyl]acetamide] |
| 0.0001 to 10 µM | 0.0001 to 10 µM | Cn1cc(Nc2ncc(-c3ccc(CC(=O)Nc4ccnc(C(F)(F)F)c4)cc3)cn2)cn1 [Compound P-0134, 2-[4-[2-[(1-methylpyrazol-4-yl)amino]pyrimidin-5-yl]phenyl]-N-[2-(trifluoromethyl)-4-pyridyl]acetamide] |
| 0.0001 to 10 µM | 0.0001 to 10 µM | Cn1cc(Nc2ncc(-c3ccc(CC(=O)Nc4ccc(C(F)(F)F)cn4)c(F)c3)cn2)cn1 [Compound P-0106, 2-[2-fluoro-4-[2-[(1-methylpyrazol-4-yl)amino]pyrimidin-5-yl]phenyl]-N-[5-(trifluoromethyl)-2-pyridyl]acetamide] |
| 0.0001 to 10 µM | 0.0001 to 10 µM | O=C(Cc1ccc(-c2cnc3[nH]c(-c4ccc(N5CCOCC5)nc4)cc3c2)c(F)c1)Nc1cc(C(F)(F)F)ccn1 [Compound P-0192, 2-[3-fluoro-4-[2-(6-morpholino-3-pyridyl)-1H-pyrrolo[2,3-b]pyridin-5-yl]phenyl]-N-[4-(trifluoromethyl)-2-pyridyl]acetamide] |
| 0.0001 to 10 µM | 0.0001 to 10 µM | COc1cncc(NC(=O)Cc2ccc(-c3cnc(Nc4cnn(C)c4)nc3)cc2)c1 [Compound P-0133, N-(5-methoxy-3-pyridyl)-2-[4-[2-[(1-methylpyrazol-4-yl)amino]pyrimidin-5-yl]phenyl]acetamide] |
| 0.0001 to 10 µM | 0.0001 to 10 µM | Cc1n[nH]c2ncc(-c3cc(F)c(CC(=O)Nc4cncc(C(F)(F)F)c4)cc3F)cc12 [Compound P-0173, 2-[2,5-difluoro-4-(3-methyl-1H-pyrazolo[3,4-b]pyridin-5-yl)phenyl]-N-[5-(trifluoromethyl)-3-pyridyl]acetamide] |
| 0.0001 to 10 µM | 0.0001 to 10 µM | Cc1ncc(NC(=O)Cc2ccc(-c3cnc(Nc4cn(C)cn4)nc3)cc2)cc1C(F)(F)F [Compound P-0150, 2-[4-[2-[(1-methylimidazol-4-yl)amino]pyrimidin-5-yl]phenyl]-N-[6-methyl-5-(trifluoromethyl)-3-pyridyl]acetamide] |
| 0.0001 to 10 µM | 0.0001 to 10 µM | N#Cc1cc(-c2cc3cc(-c4ccc(CC(=O)Nc5cc(C(F)(F)F)ccn5)cc4F)cnc3[nH]2)ccn1 [Compound P-0194, 2-[4-[2-(2-cyano-4-pyridyl)-1H-pyrrolo[2,3-b]pyridin-5-yl]-3-fluoro-phenyl]-N-[4-(trifluoromethyl)-2-pyridyl]acetamide] |
| 0.0001 to 10 µM | 0.0001 to 10 µM | Cn1cc(Nc2ncc(-c3ccc(CC(=O)Nc4ccc(C(C)(C)C)nc4)cc3)cn2)cn1 [Compound P-0143, N-(6-tert-butyl-3-pyridyl)-2-[4-[2-[(1-methylpyrazol-4-yl)amino]pyrimidin-5-yl]phenyl]acetamide] |
| 0.0001 to 10 µM | 0.0001 to 10 µM | O=C(Cc1ccc(-c2cnc3[nH]c(-c4ccccc4)cc3c2)c(F)c1)Nc1cccc(C(F)(F)F)c1 [Compound P-0003, 2-[3-fluoro-4-(2-phenyl-1H-pyrrolo[2,3-b]pyridin-5-yl)phenyl]-N-[3-(trifluoromethyl)phenyl]acetamide] |
| 0.0001 to 10 µM | 0.0001 to 10 µM | Cn1cc(Nc2ncc(-c3ccc(CC(=O)Nc4cncc(C(C)(F)F)c4)cc3)cn2)cn1 [Compound P-0144, N-[5-(1,1-difluoroethyl)-3-pyridyl]-2-[4-[2-[(1-methylpyrazol-4-yl)amino]pyrimidin-5-yl]phenyl]acetamide] |
| 0.0001 to 10 µM | 0.0001 to 10 µM | Cn1cnc(Nc2ncc(-c3ccc(CC(=O)Nc4cncc(C(C)(F)F)c4)c(F)c3)cn2)c1 [Compound P-0103, N-[5-(1,1-difluoroethyl)-3-pyridyl]-2-[2-fluoro-4-[2-[(1-methylimidazol-4-yl)amino]pyrimidin-5-yl]phenyl]acetamide] |
| 0.0001 to 10 µM | 0.0001 to 10 µM | N#Cc1ccc(-c2cc3cc(-c4ccc(CC(=O)Nc5cncc(C(F)(F)F)c5)cc4F)cnc3[nH]2)cn1 [Compound P-0195, 2-[4-[2-(6-cyano-3-pyridyl)-1H-pyrrolo[2,3-b]pyridin-5-yl]-3-fluoro-phenyl]-N-[5-(trifluoromethyl)-3-pyridyl]acetamide] |
| 0.0001 to 10 µM | 0.0001 to 10 µM | Cn1cc(Nc2ncc(-c3ccc(CC(=O)NCc4cccnc4)cc3)cn2)cn1 [Compound P-0132, 2-[4-[2-[(1-methylpyrazol-4-yl)amino]pyrimidin-5-yl]phenyl]-N-(3-pyridylmethyl)acetamide] |
| 0.0001 to 10 µM | 0.0001 to 10 µM | COc1ccc(-c2cc3cc(-c4ccc(CC(=O)Nc5cc(C(F)(F)F)ccn5)cc4F)cnc3[nH]2)cn1 [Compound P-0191, 2-[3-fluoro-4-[2-(6-methoxy-3-pyridyl)-1H-pyrrolo[2,3-b]pyridin-5-yl]phenyl]-N-[4-(trifluoromethyl)-2-pyridyl]acetamide] |
| 0.0001 to 10 µM | 0.0001 to 10 µM | Cn1cc(Nc2ncc(-c3ccc(CC(=O)Nc4ccc(S(C)(=O)=O)cc4)cc3)cn2)cn1 [Compound P-0156, 2-[4-[2-[(1-methylpyrazol-4-yl)amino]pyrimidin-5-yl]phenyl]-N-(4-methylsulfonylphenyl)acetamide] |
| 0.0001 to 10 µM | 0.0001 to 10 µM | Cn1cc(Nc2ncc(-c3ccc(CC(=O)Nc4cc(Cl)c(C5CC5)cn4)c(F)c3)cn2)cn1 [Compound P-0107, N-(4-chloro-5-cyclopropyl-2-pyridyl)-2-[2-fluoro-4-[2-[(1-methylpyrazol-4-yl)amino]pyrimidin-5-yl]phenyl]acetamide] |
| 0.0001 to 10 µM | 0.0001 to 10 µM | Cn1cnc(Nc2ncc(-c3ccc(CC(=O)Nc4cc(C(F)(F)F)ccn4)c(F)c3)cn2)c1 [Compound P-0096, 2-[2-fluoro-4-[2-[(1-methylimidazol-4-yl)amino]pyrimidin-5-yl]phenyl]-N-[4-(trifluoromethyl)-2-pyridyl]acetamide] |
